This note sets out measurements from patent US11434242B2, “Dopamine-b-hydroxylase inhibitors” (BIAL-PORTELA & Cª, S.A., priority 2017, dated 2022).

The test has as its target T1, Dopamine beta hydroxylase (Homo sapiens, UniProt P09172).
T1 construct: 125 μl of plasma; tissue Instituto Português do Sangue Transplantação; host or cells: human plasma from healthy donors
T1 sequence (P09172 40-617 limits assumed): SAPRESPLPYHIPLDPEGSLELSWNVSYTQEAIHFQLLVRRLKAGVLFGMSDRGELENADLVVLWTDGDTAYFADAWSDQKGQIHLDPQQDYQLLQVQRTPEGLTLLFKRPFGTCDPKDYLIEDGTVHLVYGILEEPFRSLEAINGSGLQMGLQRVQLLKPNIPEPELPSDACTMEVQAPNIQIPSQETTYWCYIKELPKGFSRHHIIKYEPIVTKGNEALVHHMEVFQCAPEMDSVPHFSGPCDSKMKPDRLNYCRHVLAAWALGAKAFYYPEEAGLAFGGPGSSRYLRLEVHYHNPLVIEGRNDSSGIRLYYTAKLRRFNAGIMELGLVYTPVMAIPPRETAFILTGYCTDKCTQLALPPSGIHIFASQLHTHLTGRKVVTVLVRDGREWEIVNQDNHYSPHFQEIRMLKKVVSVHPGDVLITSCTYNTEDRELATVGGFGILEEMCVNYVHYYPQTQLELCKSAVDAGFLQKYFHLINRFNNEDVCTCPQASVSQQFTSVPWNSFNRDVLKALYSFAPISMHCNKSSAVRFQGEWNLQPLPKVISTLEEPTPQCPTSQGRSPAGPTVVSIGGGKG
In words: Dopamine beta hydroxylase activity in human plasma. The format is biochemical. Particulars: for Plasma (1 μM), activity in % of control: inhibitor 1 μM. Put shortly:
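Healthy-donor human plasma pre-incubated 10 min at 37° C with compound at final 10, 100 or 1000 nM in pH 5.0 acetate buffer with ascorbate, fumarate, pargyline, N-ethylmaleimide, catalase and copper sulfate. Tyramine substrate then added for 45 min; octopamine formed was isolated by SCX cartridge, periodate-converted and read at 330 nm; activity given as % control.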

Marks after values point to notes of the source that are not given here.

Take `Cn1c(CC(=O)NC2CC2)c2n(c1=S)C[C@@]1(c3cc(Br)ccc3F)C[C@@H]21` [Example 357, 2-((5aS,6aR)-5a-(5-bromo-2-fluorophenyl)-2-methyl-3-thioxo-2,3,5,5a,6,6a-hexahydrocyclopropa[3,4]pyrrolo[1,2-c]imidazol-1-yl)-N-cyclopropylacetamide]: where the note is “inhibitor 0.01 μM”, the “Plasma (0.01 μM), activity in % of control” value was 62.1 % of control. Moreover, the “Plasma (0.1 μM), activity in % of control” value (inhibitor 0.1 μM) is 15.1 % of control.
On the same counts, the results for `Cn1c(CC(=O)N[C@@H]2CCNC2=O)c2n(c1=S)C[C@H](c1c(F)ccc(Br)c1F)C2` [Example 342, 2-((S)-6-(3-bromo-2,6-difluorophenyl)-2-methyl-3-thioxo-2,5,6,7-tetrahydro-3H-pyrrolo[1,2-c]imidazol-1-yl)-N—((R)-2-oxopyrrolidin-3-yl)acetamide] are 66.6 % of control and 16.5 % of control.
Consider `O=C(Cc1[nH]c(=S)n2c1C[C@H](c1c(F)ccc(Br)c1F)C2)N[C@@H]1CCOC1` [Example 116, 2-((R)-6-(3-bromo-2,6-difluorophenyl)-3-thioxo-2,5,6,7-tetrahydro-3H-pyrrolo[1,2-c]imidazol-1-yl)-N—((R)-tetrahydrofuran-3-yl)acetamide], for which the “Plasma (0.01 μM), activity in % of control” value (inhibitor 0.01 μM) is on record as 93.8 % of control. The “Plasma (0.1 μM), activity in % of control” value (inhibitor 0.1 μM) is 68.8 % of control.
For `Cn1c(CC(=O)NC2COC2)c2n(c1=S)C[C@H](c1c(F)ccc(F)c1F)C2` [Example 432, (S)-2-(2-methyl-3-thioxo-6-(2,3,6-trifluorophenyl)-2,5,6,7-tetrahydro-3H-pyrrolo[1,2-c]imidazol-1-yl)-N-(oxetan-3-yl)acetamide], the “Plasma (0.01 μM), activity in % of control” value (inhibitor 0.01 μM) is 79.7 % of control. The “Plasma (0.1 μM), activity in % of control” value (inhibitor 0.1 μM) was 43.7 % of control.
With `Cl.Cn1c(CCNC2CCCC2)c2n(c1=S)C[C@@]1(c3cc(Cl)ccc3F)C[C@@H]21` [Example 322, (5aS,6aR)-5a-(5-chloro-2-fluorophenyl)-1-(2-(cyclopentylamino)ethyl)-2-methyl-5,5a,6,6a-tetrahydrocyclopropa[3,4]pyrrolo[1,2-c]imidazole-3(2H)-thione Hydrochloride], the “Plasma (0.01 μM), activity in % of control” value (inhibitor 0.01 μM) is 62.3 % of control. Further, the “Plasma (0.1 μM), activity in % of control” value (inhibitor 0.1 μM) is 43.4 % of control.
Turning to `CN(C(=O)Cc1[nH]c(=S)n2c1C[C@@H](c1c(F)ccc(Br)c1F)C2)C1CCOC1` (stereo partly drawn) [Example 167, 2-((S)-6-(3-bromo-2,6-difluorophenyl)-3-thioxo-2,5,6,7-tetrahydro-3H-pyrrolo[1,2-c]imidazol-1-yl)-N-methyl-N-(tetrahydrofuran-3-yl)acetamide], the “Plasma (0.01 μM), activity in % of control” value (inhibitor 0.01 μM) was 50.8 % of control. Where the note is “inhibitor 0.01 μM, re-tested under the same experimental conditions, asterisked data believed to be correct”, the “Plasma (0.01 μM), activity in % of control, re-test (asterisked)” value was 78.0* % of control. Besides, the “Plasma (0.1 μM), activity in % of control” value (inhibitor 0.1 μM) is 3.2 % of control. Besides, where the note is “inhibitor 0.1 μM, re-tested under the same experimental conditions, asterisked data believed to be correct”, the “Plasma (0.1 μM), activity in % of control, re-test (asterisked)” value is recorded as 28.0* % of control.
Regarding `CC1CCN(C(=O)CCc2[nH]c(=S)n3c2C[C@H](c2c(F)c(F)cc(F)c2F)C3)CC1` [Example 208, (R)-1-(4-methylpiperidin-1-yl)-3-(6-(2,3,5,6-tetrafluorophenyl)-3-thioxo-2,5,6,7-tetrahydro-3H-pyrrolo[1,2-c]imidazol-1-yl)propan-1-one], the “Plasma (0.01 μM), activity in % of control” value (inhibitor 0.01 μM) is 62.0 % of control. Under “inhibitor 0.1 μM”, the “Plasma (0.1 μM), activity in % of control” value was 13.3 % of control.
On the same counts, the results for `[2H]C([2H])([2H])n1c(CC(=O)O)c2n(c1=S)C[C@@]1(c3cc(Br)ccc3F)C[C@@H]21` [Example 462, 2-((5aS,6aR)-5a-(5-bromo-2-fluorophenyl)-2-(methyl-d)-3-thioxo-2,3,5,5a,6,6a-hexahydrocyclopropa[3,4]pyrrolo[1,2-c]imidazol-1-yl)acetic Acid] are 50.2 % of control and 10.3 % of control.
As for `O=C(O)Cc1[nH]c(=S)n2c1C[C@H](c1cc(Cl)ccc1F)C2` [Example 17, (R)-2-(6-(5-chloro-2-fluorophenyl)-3-thioxo-2,5,6,7-tetrahydro-3H-pyrrolo[1,2-c]imidazol-1-yl)acetic Acid], the “Plasma (1 μM), activity in % of control” value is on record as 32.2 % of control. Besides, under “inhibitor 0.1 μM”, the “Plasma (0.1 μM), activity in % of control” value was 79.0 % of control.
For `Cl.O=C(Cc1[nH]c(=S)n2c1C[C@@H](c1c(F)ccc(Cl)c1F)C2)NCCN1CCC(F)(F)CC1` [Example 115, (S)-2-(6-(3-chloro-2,6-difluorophenyl)-3-thioxo-2,5,6,7-tetrahydro-3H-pyrrolo[1,2-c]imidazol-1-yl)-N-(2-(4,4-difluoropiperidin-1-yl)ethyl)acetamide Hydrochloride], where the note is “inhibitor 0.01 μM”, the “Plasma (0.01 μM), activity in % of control” value is 48.0 % of control. Further, under “inhibitor 0.1 μM”, the “Plasma (0.1 μM), activity in % of control” value was 0 % of control.
On the same counts, the results for `Fc1ccc(Br)cc1[C@]12C[C@H]1c1c(CCNCC(F)(F)F)[nH]c(=S)n1C2` [Example 180, (5aS,6aR)-5a-(5-bromo-2-fluorophenyl)-1-(2-((2,2,2-trifluoroethyl)amino)ethyl)-5,5a,6,6a-tetrahydrocyclopropa[3,4]pyrrolo[1,2-c]imidazole-3(2H)-thione] are 99.2 % of control and 22.3 % of control.
`O=C(Cc1[nH]c(=S)n2c1C[C@@H](c1c(F)ccc(Cl)c1F)C2)NCCn1cccn1` [Example 162, (S)—N-(2-(1H-pyrazol-1-yl)ethyl)-2-(6-(3-chloro-2,6-difluorophenyl)-3-thioxo-2,5,6,7-tetrahydro-3H-pyrrolo[1,2-c]imidazol-1-yl)acetamide]: the “Plasma (0.01 μM), activity in % of control” value (inhibitor 0.01 μM) is recorded as 87.2 % of control. For the same compound, the “Plasma (0.1 μM), activity in % of control” value (inhibitor 0.1 μM) is listed as 31.3 % of control.
Consider `O=C(O)Cc1[nH]c(=S)n2c1C[C@H](c1cc(F)ccc1F)C2` [Example 14, (R)-2-(6-(2,5-difluorophenyl)-3-thioxo-2,5,6,7-tetrahydro-3H-pyrrolo[1,2-c]imidazol-1-yl)acetic Acid], for which the “Plasma (1 μM), activity in % of control” value is reported as 45.6 % of control. The “Plasma (0.1 μM), activity in % of control” value (inhibitor 0.1 μM) is given as 92.8 % of control.
With `Cn1c(CC(=O)O)c2n(c1=S)C[C@@H](c1c(F)c(F)cc(F)c1F)C2` [Example 229, (R)-2-(2-methyl-6-(2,3,5,6-tetrafluorophenyl)-3-thioxo-3,5,6,7-tetrahydro-2H-pyrrolo[1,2-c]imidazol-1-yl)acetic Acid], the “Plasma (0.01 μM), activity in % of control” value (inhibitor 0.01 μM) is given as 84.3 % of control. In addition, the “Plasma (0.1 μM), activity in % of control” value (inhibitor 0.1 μM) is 38.3 % of control.
With `Cn1c(CC(=O)NC2COC2)c2n(c1=S)C[C@@H](c1c(F)c(F)cc(F)c1F)C2` [Example 394, (R)-2-(2-methyl-6-(2,3,5,6-tetrafluorophenyl)-3-thioxo-2,5,6,7-tetrahydro-3H-pyrrolo[1,2-c]imidazol-1-yl)-N-(oxetan-3-yl)acetamide], for the setting “inhibitor 0.01 μM”, the “Plasma (0.01 μM), activity in % of control” value is on record as 92.1 % of control. The “Plasma (0.1 μM), activity in % of control” value (inhibitor 0.1 μM) was 47.6 % of control.
As to `CCOC(=O)Cc1[nH]c(=S)n2c1C[C@@H](c1cc(Br)ccc1F)C2` [Example 62, Ethyl (S)-2-(6-(5-bromo-2-fluorophenyl)-3-thioxo-2,5,6,7-tetrahydro-3H-pyrrolo[1,2-c]imidazol-1-yl)acetate], the “Plasma (1 μM), activity in % of control” value was 10.9 % of control. For the same compound, for the setting “inhibitor 0.1 μM”, the “Plasma (0.1 μM), activity in % of control” value was 66.4 % of control.
